# Assay results published in US10065963B2 (Incyte Corporation, priority 2015, dated 2018).
# Where a name gives a salt, the structure may show the parent alone. Read-outs that look alike come from different tables or passages of the source.
# Tests used:
# [1] = target: PI3Kγ (p110γ) Recombinant Human Protein (Homo sapiens (Human), UniProt P48736); test: PI3K-γ scintillation proximity assay; type: biochemical; details: 2 μM ATP, 20 μM PIP2
# [2] = target: PI3Kδ (p110δ/p85α) Recombinant Human Protein (Homo sapiens (Human), UniProt O00329); test: PI3Kδ scintillation proximity assay; type: biochemical; details: 2 μM ATP, 20 μM PIP2
# Sequence of PI3Kδ (p110δ/p85α) Recombinant Human Protein (O00329 whole entry): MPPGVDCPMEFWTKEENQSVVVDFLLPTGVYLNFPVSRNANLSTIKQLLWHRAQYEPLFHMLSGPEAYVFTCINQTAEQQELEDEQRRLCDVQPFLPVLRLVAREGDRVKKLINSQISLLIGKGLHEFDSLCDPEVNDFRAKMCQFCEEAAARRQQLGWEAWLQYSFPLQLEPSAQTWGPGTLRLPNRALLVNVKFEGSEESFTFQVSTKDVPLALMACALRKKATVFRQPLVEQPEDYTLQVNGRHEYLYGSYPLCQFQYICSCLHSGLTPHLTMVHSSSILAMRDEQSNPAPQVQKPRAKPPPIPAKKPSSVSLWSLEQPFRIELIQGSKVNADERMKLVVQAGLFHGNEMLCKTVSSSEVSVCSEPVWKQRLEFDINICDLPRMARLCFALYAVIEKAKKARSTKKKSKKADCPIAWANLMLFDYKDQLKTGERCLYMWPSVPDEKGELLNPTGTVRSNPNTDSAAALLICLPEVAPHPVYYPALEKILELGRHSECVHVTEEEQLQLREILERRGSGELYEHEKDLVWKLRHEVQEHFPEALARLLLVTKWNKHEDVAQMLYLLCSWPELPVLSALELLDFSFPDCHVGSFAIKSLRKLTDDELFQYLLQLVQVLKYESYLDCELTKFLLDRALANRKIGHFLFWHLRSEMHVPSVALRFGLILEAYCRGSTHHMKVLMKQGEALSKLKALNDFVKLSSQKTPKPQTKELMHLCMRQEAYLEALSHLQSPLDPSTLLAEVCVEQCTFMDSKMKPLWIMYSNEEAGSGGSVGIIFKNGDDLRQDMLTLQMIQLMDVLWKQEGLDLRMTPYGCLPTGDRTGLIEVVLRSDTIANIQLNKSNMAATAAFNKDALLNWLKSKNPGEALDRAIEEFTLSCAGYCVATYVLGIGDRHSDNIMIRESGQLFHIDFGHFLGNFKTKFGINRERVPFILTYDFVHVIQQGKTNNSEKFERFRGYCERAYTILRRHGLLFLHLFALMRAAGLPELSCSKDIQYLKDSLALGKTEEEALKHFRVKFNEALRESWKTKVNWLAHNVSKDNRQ
# Sequence of PI3Kδ (p110δ/p85α) Recombinant Human Protein (P27986 whole entry partner): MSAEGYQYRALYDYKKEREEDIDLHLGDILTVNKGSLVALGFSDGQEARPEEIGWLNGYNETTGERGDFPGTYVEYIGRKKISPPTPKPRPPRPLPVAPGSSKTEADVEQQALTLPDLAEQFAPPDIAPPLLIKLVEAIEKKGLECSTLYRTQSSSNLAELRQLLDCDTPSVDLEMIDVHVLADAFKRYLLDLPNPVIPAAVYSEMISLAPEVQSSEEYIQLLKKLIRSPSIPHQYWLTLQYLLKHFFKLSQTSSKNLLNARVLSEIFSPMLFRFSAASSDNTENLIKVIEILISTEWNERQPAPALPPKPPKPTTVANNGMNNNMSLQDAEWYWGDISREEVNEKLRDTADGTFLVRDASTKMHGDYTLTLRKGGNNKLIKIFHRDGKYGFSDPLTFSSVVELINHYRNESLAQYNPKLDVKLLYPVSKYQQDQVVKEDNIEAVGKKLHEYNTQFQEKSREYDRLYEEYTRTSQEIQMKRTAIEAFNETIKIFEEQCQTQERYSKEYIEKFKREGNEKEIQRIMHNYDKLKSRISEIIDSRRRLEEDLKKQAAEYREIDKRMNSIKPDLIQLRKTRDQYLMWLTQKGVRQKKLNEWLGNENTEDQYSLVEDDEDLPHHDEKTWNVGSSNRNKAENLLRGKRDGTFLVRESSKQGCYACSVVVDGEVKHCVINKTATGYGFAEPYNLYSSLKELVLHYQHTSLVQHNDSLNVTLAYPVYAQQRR
# [3] = tested on: Phosphorylated Ribosomal Protein S6 (RPS6) in THP-1 cells; test: THP-1 RPS6 ELISA assay; type: cell-based, human; details: 10 nM MCP-1, read-out: PI3Kγ_THP1_RPS6_ELISA IC50
# [4] = Homo sapiens, THP-1, THP-1 cells
# Sequence of PI3Kγ (p110γ) Recombinant Human Protein (P48736 whole entry): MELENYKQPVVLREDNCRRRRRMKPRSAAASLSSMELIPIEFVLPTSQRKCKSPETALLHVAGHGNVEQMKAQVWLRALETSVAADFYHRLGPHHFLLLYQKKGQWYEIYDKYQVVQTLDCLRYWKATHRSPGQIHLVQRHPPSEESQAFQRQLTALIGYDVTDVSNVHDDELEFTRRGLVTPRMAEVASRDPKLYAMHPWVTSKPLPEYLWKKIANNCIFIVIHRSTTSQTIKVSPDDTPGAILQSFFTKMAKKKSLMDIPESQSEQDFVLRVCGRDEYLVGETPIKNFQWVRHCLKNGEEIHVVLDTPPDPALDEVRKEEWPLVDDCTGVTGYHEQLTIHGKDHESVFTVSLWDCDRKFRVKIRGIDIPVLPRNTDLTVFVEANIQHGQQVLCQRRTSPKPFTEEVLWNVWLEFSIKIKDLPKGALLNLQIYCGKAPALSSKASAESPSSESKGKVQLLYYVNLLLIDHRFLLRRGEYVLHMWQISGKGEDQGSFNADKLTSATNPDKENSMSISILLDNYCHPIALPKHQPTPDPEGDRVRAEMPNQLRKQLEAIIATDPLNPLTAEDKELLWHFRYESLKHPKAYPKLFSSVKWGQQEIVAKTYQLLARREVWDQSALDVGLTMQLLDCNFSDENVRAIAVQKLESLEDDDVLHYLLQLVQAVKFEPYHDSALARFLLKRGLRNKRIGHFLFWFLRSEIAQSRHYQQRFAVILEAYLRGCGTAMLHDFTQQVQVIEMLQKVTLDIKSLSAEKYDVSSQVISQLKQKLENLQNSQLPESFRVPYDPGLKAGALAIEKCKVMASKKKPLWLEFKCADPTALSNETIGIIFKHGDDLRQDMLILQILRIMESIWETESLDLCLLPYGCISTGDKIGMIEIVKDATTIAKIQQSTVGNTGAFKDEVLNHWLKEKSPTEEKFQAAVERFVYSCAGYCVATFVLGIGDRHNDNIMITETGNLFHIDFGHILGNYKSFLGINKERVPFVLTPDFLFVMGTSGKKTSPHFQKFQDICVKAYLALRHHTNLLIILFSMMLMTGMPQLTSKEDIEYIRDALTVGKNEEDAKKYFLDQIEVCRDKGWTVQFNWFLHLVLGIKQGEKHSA
IC50 [1] [µM],IC50 [2] [µM],"IC50 [3, 4] [µM]",IC50 ([3]; THP-1 cells) [µM],Compound
< 0.1,< 0.1,< 0.5,,"CC(NC(=O)c1c(N)nn2cccnc12)c1cc(Cl)c2cncn2c1N1CCNS(=O)(=O)CC1 (racemic) [Example 149, 2-Amino-N-{1-[8-chloro-5-(1,1-dioxido-1,2,5-thiadiazepan-5-yl)imidazo[1,5-a]pyridin-6-yl]ethyl}pyrazolo[1,5-a]pyrimidine-3-carboxamide]"
< 0.1,< 0.1,< 0.5,,"CC(NC(=O)c1c(N)nn2cccnc12)c1cc(Cl)c2cncn2c1N1CCCS(=O)(=O)CC1 (racemic) [Example 151, 2-Amino-N-{1-[8-chloro-5-(1,1-dioxido-1,4-thiazepan-4-yl)imidazo[1,5-a]pyridin-6-yl]ethyl}pyrazolo[1,5-a]pyrimidine-3-carboxamide trifluoroacetate salt]"
< 0.5,< 0.5,< 1,,"CC(NC(=O)c1c(N)nn2cccnc12)c1cc(Cl)c2cncn2c1N1CCN(C)C(=O)C1 (racemic) [Example 154, 2-Amino-N-{1-[8-chloro-5-(4-methyl-3-oxopiperazin-1-yl)imidazo[1,5-a]pyridin-6-yl]ethyl}pyrazolo[1,5-a]pyrimidine-3-carboxamide trifluoroacetate salt]"
< 0.1,< 0.5,< 0.5,,"CC(NC(=O)c1c(N)nn2cccnc12)c1cc(Cl)c2cncn2c1N1C[C@H](O)C[C@@H](O)C1 (mixture of isomers) [Example 155A, 2-Amino-N-(1-{8-chloro-5-[(3R,5R)-3,5-dihydroxypiperidin-1-yl]imidazo[1,5-a]pyridin-6-yl}ethyl)pyrazolo[1,5-a]pyrimidine-3-carboxamide trifluoroacetate salt]"
< 0.1,< 0.5,< 0.5,,"Cc1ncc2c(Cl)cc(C(C)NC(=O)c3c(N)nn4cccnc34)c(N3CCCS(=O)(=O)CC3)n12 (racemic) [Example 158, 2-Amino-N-(1-(8-chloro-5-(1,1-dioxido-1,4-thiazepan-4-yl)-3-methylimidazo[1,5-a]pyridin-6-yl)ethyl)pyrazolo[1,5-a]pyrimidine-3-carboxamide trifluoroacetate salt]"
< 0.1,< 0.5,< 0.5,,"CC(NC(=O)c1c(N)nn2cccnc12)c1cc(Cl)c2c(Cl)ncn2c1N1CCS(=O)(=O)CC1 (racemic) [Example 162, 2-Amino-N-{1-[1,8-dichloro-5-(1,1-dioxidothiomorpholin-4-yl)imidazo[1,5-a]pyridin-6-yl]ethyl}pyrazolo[1,5-a]pyrimidine-3-carboxamide trifluoroacetate salt]"
< 0.1,< 0.1,< 0.5,,"CC(NC(=O)c1c(N)nn2cccnc12)c1cc(Cl)c2c(Cl)ncn2c1N1CCC(C#N)CC1 (racemic) [Example 163, 2-Amino-N-{1-[1,8-dichloro-5-(4-cyanopiperidin-1-yl)imidazo[1,5-a]pyridin-6-yl]ethyl}pyrazolo[1,5-a]pyrimidine-3-carboxamide trifluoroacetate salt]"
< 0.1,< 2,> 1,,"CC(NC(=O)c1c(N)nn2cccnc12)c1cc(Cl)c2c(C#N)ncn2c1N1CCS(=O)(=O)CC1 (racemic) [Example 164, 2-Amino-N-{1-[8-chloro-1-cyano-5-(1,1-dioxidothiomorpholin-4-yl)imidazo[1,5-a]pyridin-6-yl]ethyl}pyrazolo[1,5-a]pyrimidine-3-carboxamide trifluoroacetate salt]"
< 0.1,< 0.5,< 0.5,,"CC1CN(c2c(CNC(=O)c3c(N)nn4cccnc34)cc(Cl)c3cncn23)CCS1(=O)=O (racemic) [Example 167, 2-Amino-N-((8-chloro-5-(2-methyl-1,1-dioxidothiomorpholino)imidazo[1,5-a]pyridin-6-yl)methyl)pyrazolo[1,5-a]pyrimidine-3-carboxamide trifluoroacetate salt]"
< 0.1,< 0.5,< 0.5,,"CC1CN(c2c(CNC(=O)c3c(N)nn4cccnc34)cc(Cl)c3c(Cl)ncn23)CCS1(=O)=O (racemic) [Example 169, 2-Amino-N-((1,8-dichloro-5-(2-methyl-1,1-dioxidothiomorpholino)imidazo[1,5-a]pyridin-6-yl)methyl)pyrazolo[1,5-a]pyrimidine-3-carboxamide trifluoroacetate salt]"
< 0.1,< 0.1,< 0.5,,"Nc1nn2cccnc2c1C(=O)NC(c1cc(Cl)c2cncn2c1N1CCS(=O)(=O)CC1)C(F)(F)F (racemic) [Example 180, 2-Amino-N-{1-[8-chloro-5-(1,1-dioxidothiomorpholin-4-yl)imidazo[1,5-a]pyridin-6-yl]-2,2,2-trifluoroethyl}pyrazolo[1,5-a]pyrimidine-3-carboxamide trifluoroacetate salt]"
< 0.1,< 0.1,< 0.5,,"CC(C)C(NC(=O)c1c(N)nn2cccnc12)c1cc(Cl)c2cncn2c1N1CCS(=O)(=O)CC1 (racemic) [Example 181, 2-Amino-N-(1-(8-chloro-5-(1,1-dioxidothiomorpholino)imidazo[1,5-a]pyridin-6-yl)-2-methylpropyl)pyrazolo[1,5-a]pyrimidine-3-carboxamide trifluoroacetate salt]"
< 0.1,< 0.1,< 0.5,,"Nc1nn2cccnc2c1C(=O)NC(c1cc(Cl)c2cncn2c1N1CCS(=O)(=O)CC1)C1CC1 (racemic) [Example 182, 2-Amino-N-((8-chloro-5-(1,1-dioxidothio-morpholino)imidazo [1,5-a]pyridin-6-yl)(cyclopropyl)methyl)pyrazolo [1,5-a] pyrimidine-3-carboxamide trifluoroacetate salt]"
< 0.1,< 0.1,< 0.5,,"CCOc1c(C(C)NC(=O)c2c(N)nn3cccnc23)cc(Cl)c2cn[nH]c12 (single isomer, unassigned) [Example 3a, 2-amino-N-[1-(4-chloro-7-ethoxy-1H-indazol-6-yl)ethyl]pyrazolo[1,5-a]pyrimidine-3-carboxamide trifluoroacetate]"
< 0.1,< 0.1,< 0.5,,"CC(NC(=O)c1c(N)nn2cccnc12)c1cc(Cl)c2cncn2c1N1CCS(=O)(=O)CC1 (single isomer, unassigned) [Example 36A, 2-Amino-N-(1-[8-chloro-5-(1,1-dioxidothiomorpholin-4-yl)imidazo[1,5-a]pyridin-6-yl]ethyl)pyrazolo[1,5-a]pyrimidine-3-carboxamide]"
< 0.1,< 0.1,< 0.5,,"CC(NC(=O)c1c(N)nn2cccnc12)c1cc(Cl)c2cncn2c1N1CCS(=O)(=O)CC1C (single isomer, unassigned) [Example 38A, 2-Amino-N-(1-[8-chloro-5-(3-methyl-1,1-dioxidothiomorpholin-4-yl)imidazo[1,5-a]pyridin-6-yl]ethyl)pyrazolo[1,5-a]pyrimidine-3-carboxamide trifluoroacetate salt]"
< 0.1,< 0.1,< 0.5,,"CC(NC(=O)c1c(N)nn2cccnc12)c1cc(Cl)c2cncn2c1N1CCCC(F)C1 (single isomer, unassigned) [Example 73A, 2-Amino-N-{1-[8-chloro-5-(3-fluoropiperidin-1-yl)imidazo[1,5-a]pyridin-6-yl]ethyl}pyrazolo[1,5-a]pyrimidine-3-carboxamide]"
< 0.1,< 0.1,,< 0.5,"CC(NC(=O)c1c(N)nn2cccnc12)c1cc(Cl)c2cncn2c1N1CCCC(F)C1 (single isomer, unassigned) [Example 73B, 2-Amino-N-{1-[8-chloro-5-(3-fluoropiperidin-1-yl)imidazo[1,5-a]pyridin-6-yl]ethyl}pyrazolo[1,5-a]pyrimidine-3-carboxamide]"
< 0.1,< 0.1,< 0.5,,"CC(NC(=O)c1c(N)nn2cccnc12)c1cc(Cl)c2cncn2c1N1CCCC(C)(O)C1 (single isomer, unassigned) [Example 76A, 2-Amino-N-{1-[8-chloro-5-(3-hydroxy-3-methylpiperidin-1-yl)imidazo[1,5-a]pyridin-6-yl]ethyl}pyrazolo[1,5-a]pyrimidine-3-carboxamide trifluoroacetate]"
< 0.1,< 0.5,,< 0.5,"CC(NC(=O)c1c(N)nn2cccnc12)c1cc(Cl)c2cncn2c1N1CCCC(C)(O)C1 (single isomer, unassigned) [Example 76B, 2-Amino-N-{1-[8-chloro-5-(3-hydroxy-3-methylpiperidin-1-yl)imidazo[1,5-a]pyridin-6-yl]ethyl}pyrazolo[1,5-a]pyrimidine-3-carboxamide trifluoroacetate]"
< 0.1,< 0.5,< 0.5,,"CC(NC(=O)c1c(N)nn2cccnc12)c1cc(Cl)c2cncn2c1N1CCCC(C)(C#N)C1 (single isomer, unassigned) [Example 77A, 2-Amino-N-{1-[8-chloro-5-(3-cyano-3-methylpiperidin-1-yl)imidazo[1,5-a]pyridin-6-yl]ethyl}pyrazolo[1,5-a]pyrimidine-3-carboxamide trifluroacetate]"
< 0.1,< 0.1,,< 0.5,"CC(NC(=O)c1c(N)nn2cccnc12)c1cc(Cl)c2cncn2c1N1CCCC(C)(C#N)C1 (single isomer, unassigned) [Example 77B, 2-Amino-N-{1-[8-chloro-5-(3-cyano-3-methylpiperidin-1-yl)imidazo[1,5-a]pyridin-6-yl]ethyl}pyrazolo[1,5-a]pyrimidinc-3-carboxamide trifluroacetate]"
